# Assay results published in patent publication US20220288077A1, “PROSTATITIS TREATMENT” (NATIONAL INSTITUTE OF BIOLOGICAL SCIENCES, priority 2019, published 2022).
# Tests used:
# [1] = system: carrageenan-induced male rat prostate disease model; assay: Carrageenan-induced male rat prostate disease model: representative RIP1, RIP3 and MLKL inhibitors; assay type: in vivo; settings: list after the methods of the example; protocols based on RIPA-56
# Method: Experimental protocols for the compounds of Table 1 were based on those used for RIPA-56. Each inhibitor was intraperitoneally or orally administrated to rat before carrageenan treatment, at the dose of 20 mg/kg to 100 mg/kg.
# Each inhibitor was intraperitoneally or orally administrated to rat before carrageenan treatment, at the dose of 20 mg/kg to 100 mg/kg.
# All the SD rats were randomly divided into different groups (n=8-10): control group, model group, and compounds-treated groups. For injection of carrageenan or saline, rats were anesthetized with 4% chloral hydrate and were fixed in a supine position. […] A small midline incision was made in the sterile area, then the bladder and the prostate carefully exposed. With a 30-gauge needle, 50 ul sterile suspension of 3% carrageenan (Sigma, MO, USA) or saline (sham group) was injected into both right and left ventral lobes of the prostate gland. […] While an equal amount of solvents were intraperitoneally and orally injected to control rats.
# [2] = system: carrageenan-induced rat prostatitis model; assay: Carrageenan-induced rat prostatitis model: histological analysis of prostate (H & E); assay type: in vivo; settings: FIG. 1 C
# Source text: (§1) Adult male Sprague-Dawley rats (250-350 g body weight) were used for the experiments. All animals were acclimated for 1 week before any experimental procedures.
# (§2) All the SD rats were randomly divided into different groups (n=8-10): control group, model group, and compounds-treated groups. For injection of carrageenan or saline, rats were anesthetized with 4% chloral hydrate and were fixed in a supine position. Then, the lower abdomen above the penis of rats was shaved and the skin in this area sterilized using 3 applications of 75% medical alcohol. A small midline incision was made in the sterile area, then the bladder and the prostate carefully exposed. With a 30-gauge needle, 50 ul sterile suspension of 3% carrageenan (Sigma, MO, USA) or saline (sham group) was injected into both right and left ventral lobes of the prostate gland. Different doses of RIPA-56 (12.5 mg/kg, 25 mg/kg, IP) or Finasteride (5 mg/kg, PO) were administrated to rats before (−17 min) and after (once every 12 h) carrageenan injection. […]
# For histological analysis, one part of the prostate was fixed in 10% neutral buffered formalin for 24 h, dehydrated in ethanol, cleared in xylene, and embedded in paraffin blocks. […] Each slide was evaluated randomly in 3 different areas by an independent investigator unaware of the animal grouping using a microscope.
# aged mice = settings: seminal vesicles, seminiferous tubules, sperm production, reproductive capacity; cited from earlier work
# [3] = system: carrageenan-induced rat prostatitis model; assay: Carrageenan-induced rat prostatitis model: prostate weight assessment (prostate index); assay type: in vivo; settings: for prostate index (ratio of prostate gland wet weight/body weight): seven days after carrageenan, model group 2.15±0.30 mg/g
# Source text: as §1
# All the SD rats were randomly divided into different groups (n=8-10): control group, model group, and compounds-treated groups. For injection of carrageenan or saline, rats were anesthetized with 4% chloral hydrate and were fixed in a supine position. Then, the lower abdomen above the penis of rats was shaved and the skin in this area sterilized using 3 applications of 75% medical alcohol. A small midline incision was made in the sterile area, then the bladder and the prostate carefully exposed. With a 30-gauge needle, 50 ul sterile suspension of 3% carrageenan (Sigma, MO, USA) or saline (sham group) was injected into both right and left ventral lobes of the prostate gland. Different doses of RIPA-56 (12.5 mg/kg, 25 mg/kg, IP) or Finasteride (5 mg/kg, PO) were administrated to rats before (−17 min) and after (once every 12 h) carrageenan injection. While an equal amount of solvents were intraperitoneally and orally injected to control rats.
# Seven days after carrageenan injection, rats were sacrificed and the prostates were harvested. Ventral and dorsolateral lobes of prostate glands were removed by cutting the ducts at the urethral connection and weighed immediately after removal. The prostate index (ratio of prostate gland wet weight/body weight) was calculated.
# TNFα = assay: Carrageenan-induced rat prostatitis model: TNFα in prostate homogenate (ELISA); assay type: in vivo; settings: 25 mg/kg intraperitoneal B.I.D; per mg prostate homogenate protein; model 3.04±2.28, sham 0.52±0.26
# Source text: as §1
# as §2, with “gland.” for “gland. Different doses of RIPA-56 (12.5 mg/kg, 25 mg/kg, IP) or Finasteride (5 mg/kg, PO) were administrated to rats before (−17 min) and after (once every 12 h) carrageenan injection.”
# Part of rat prostate were weighed, mixed with cell lysis buffer (500 μl buffer per 100 mg tissue) and homogenized using FastPrep-24 homogenizer (MP Biomedicals). […] The supernatant was collected, and the total protein concentration was measured with the Bradford protein assay method. […] The level of cytokines was determined using rat TNFα, IL-1β and IL-6 ELISA kit (Biolegend or ProteinTech), and normalized to prostate protein concentration.
# rat EAP model = settings: cited from earlier work
compound,measurement,setting,value
"CCC(C)(C)C(=O)N(O)Cc1cc(F)cc(F)c1F [N-Hydroxy-2,2-dimethyl-N-(2,3,5-trifluorobenzyl)butanamide]",listed under heading Active RIP1 Inhibitors,[1],Active
"CCC(C)(C)C(=O)N(O)Cc1cc(F)c(F)c(F)c1 [N-Hydroxy-2,2-dimethyl-N-(3,4,5-trifluorobenzyl)butanamide]",listed under heading Active RIP1 Inhibitors,[1],Active
"CN1C(=O)C(Cc2c[nH]c3ccccc23)NC1=S (stereo not shown) [Nec-1, 5-((1H-indol-3-yl)methyl)-3-methyl-2-thioxoimidazolidin-4-one]",listed under heading Active RIP1 Inhibitors,[1],Active
"COc1nccnc1NS(=O)(=O)c1ccc(NC(=O)/C=C/c2ccc([N+](=O)[O-])s2)cc1 [Necrosulfonamide, (2E)-N-[4-[[(3-Methoxy-2-pyrazinyl)amino]sulfonyl]phenyl]-3-(5-nitro-2-thienyl)-2-propenamide]",listed under heading Active MLKL Inhibitors,[1],Active
"Cc1ccc(CCCCN2C(=O)N[C@H](Cc3c[nH]c4c(Cl)cccc34)C2=O)cc1C#Cc1cnc2cccnn12 [Ponatinib-Nec1s, (R)-5-((7-chloro-1H-indol-3-yl)methyl)-3-(4-(3-(imidazo[1,2-b]pyridazin-3-ylethynyl)-4-methylphenyl)butyl)imidazolidine-2,4-dione]",listed under heading Active RIP1 Inhibitors,[1],Active
CCC(C)(C)C(=O)N(O)Cc1ccccc1 [RIPA-56],inflammatory response in the prostate (histopathology),[2]; RIPA-56 treated rats vs disease-model group,less severe than the disease-model group
same,inflammatory cells in the interstitial space (histopathology),[2]; RIPA-56 treated rats,Only few inflammatory cells
same,protection of aged mice from reproductive system aging,aged mice,can protect aged mice from seminal vesicles enlargement
same,prostate index (ratio of prostate gland wet weight/body weight),[3]; 12.5 mg/kg intraperitoneal B.I.D,1.99 ± 0.41 mg/g
same,prostate index (ratio of prostate gland wet weight/body weight),[3]; 25 mg/kg intraperitoneal B.I.D,1.82 ± 0.22 mg/g
same,inhibition to the prostate enlargement and edema,[3]; 12.5 and 25 mg/kg intraperitoneal B.I.D,dose-dependent inhibition
same,TNFα level in the prostate homogenate,TNFα,1.02 ± 0.37 pg/mg
"Cn1c(=O)c2c(nc(S(C)(=O)=O)n2C)n(C)c1=O [TC13-4, 1,3,7-trimethyl-8-(methylsulfonyl)-1H-purine-2,6(3H,7H)-dione]",listed under heading Active MLKL Inhibitors,[1],Active
"COc1ccc(OC)c(CS(=O)(=O)c2nc3c(c(=O)n(C)c(=O)n3C)n2C)c1 [TC13-58, (2,5-dimethoxybenzylsulfonyl)-1,3,7-trimethyl-1H-purine-2,6(3H,7H)-dione]",listed under heading Active MLKL Inhibitors,[1],Active
"CCn1c(S(C)(=O)=O)nc2c1c(=O)n(C)c(=O)n2C [TC13-74, 7-ethyl-1,3-dimethyl-8-(methylsulfonyl)-1H-purine-2,6(3H,7H)-dione]",listed under heading Active MLKL Inhibitors,[1],Active
"C#CCn1c(=O)n(C)c(=O)c2c1nc(S(C)(=O)=O)n2C [TC13-106, 1,7-dimethyl-8-(methylsulfonyl)-3-(prop-2-ynyl)-1H-purine-2,6(3H,7H)-dione]",listed under heading Active MLKL Inhibitors,[1],Active
"Cn1c(=O)c2c(nc(S(C)(=O)=O)n2C)n(CC#N)c1=O [TC13-107, 2-(1,7-dimethyl-8-(methylsulfonyl)-2,6-dioxo-1H-purin-3(2H,6H,7H)-yl)acetonitrile]",listed under heading Active MLKL Inhibitors,[1],Active
"Cn1c(=O)c2c(nc(S(=O)(=O)CC3CC3)n2C)n(CC#Cc2cccc(Cl)c2)c1=O [TC13-119, 3-(3-(3-chlorophenyl)prop-2-yn-1-yl)-8-((cyclopropylmethyl)sulfonyl)-1,7-dimethyl-3,7-dihydro-1H-purine-2,6-dione]",listed under heading Active MLKL Inhibitors,[1],Active
"CNc1cc(C#CCn2c(=O)n(C)c(=O)c3c2nc(S(=O)(=O)Cc2cc(OC)ccc2OC)n3C)ccn1 [TC13-127, 8-((2,5-dimethoxybenzyl)sulfonyl)-1,7-dimethyl-3-(3-(2-(methylamino)pyridin-4-yl)prop-2-yn-1-yl)-3,7-dihydro-1H-purine-2,6-dione]",listed under heading Active MLKL Inhibitors,[1],Active
"Cn1c(=O)c2c(nc(S(C)(=O)=O)n2C)n(CC#Cc2cccc(O)c2)c1=O [TC13-172, 3-(3-(3-hydroxyphenyl)prop-2-yn-1-yl)-1,7-dimethyl-8-(methylsulfonyl)-3,7-dihydro-1H-purine-2,6-dione]",listed under heading Active MLKL Inhibitors,[1],Active
CC(C)(C)NC(=O)[C@H]1CC[C@H]2[C@@H]3CC[C@H]4NC(=O)C=C[C@]4(C)[C@H]3CC[C@]12C [finasteride],decrease of the prostate index of carrageenan-treated rats,[3]; 5 mg/kg orally B.I.D,23%
CCOc1ccccc1OCCN[C@H](C)Cc1ccc(OC)c(S(N)(=O)=O)c1 [tamsulosin],anti-inflammatory efficacy,rat EAP model,partial anti-inflammatory efficacy
